How the values were obtained:
Type in all cases: in vivo
[1] = tested on: adult engorged female ticks (Rhipicephalus microplus); test: Rhipicephalus (Boophilus) microplus injection test; conditions: 168 h, application rate 4 μg/tick, egg deposition after 7 days, read-out: activity (efficacy: infertile eggs)
In short: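 Efficacy is scored from egg fertility, with 100% meaning every egg infertile and 0% every egg fertile. Five engorged females per test received 1 μL DMSO solution abdominally. Eggs of unclear fertility were kept until hatching, about 42 days.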

[2] = tested on: adult unfed cat fleas (Ctenocephalides felis); test: Ctenocephalides felis oral test; conditions: 48 h, read-out: activity (mortality)
Protocol: Ctenocephalides felis—Oral Test
Solvent: dimethyl sulfoxide
To produce a suitable preparation of active compound, 10 mg of active compound are dissolved in 0.5 mL solvent, and the concentrate is diluted with citrated cattle blood to the desired concentration.
Approximately 20 adult unfed cat fleas (Ctenocephalides felis) are placed in a flea chamber whose top and bottom is covered with gauze. A chamber whose bottom is sealed with parafilm, is filled with the blood-compound solution and placed on top of the flea chamber, so that the fleas can suck the blood. The blood chamber is heated to 37° C. whereas the flea chamber is kept at room temperature.
After 2 days mortality in % is determined. 100% means all the fleas have been killed; 0% means none of the fleas have been killed.

[3] = tested on: larvae of the banded cucumber beetle (Diabrotica balteata); test: Diabrotica balteata spray test; conditions: 168 h, after 7 days, wheat seeds, read-out: activity (efficacy: seedlings grown); for pest or weed control at 32 µg/disc, 100 g/ha: application rate 100 g/ha (=32 μg/well)
In short: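 Wheat seeds germinated 1 day on agar were sprayed with compound diluted in water with 1000 ppm emulsifier, then infested with 10-20 Diabrotica balteata larvae. Efficacy in % scored after 7 days: 100% = seedlings grown as untreated, uninfected control; 0% = no seedlings grown.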

[4] = tested on: green peach aphid (Myzus persicae); test: Myzus persicae oral test; conditions: 120 h, read-out: activity (mortality)
In short: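 Oral uptake format: water-diluted acetone concentrate of compound is blended into IPL41 medium carrying 33%+15% sugar and offered under a parafilm membrane. Percentage of dead insects is recorded after 5 days.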

[5] = tested on: green peach aphid (Myzus persicae); test: Myzus persicae spray test; conditions: foliar, 120 h, after 5 days, Chinese cabbage leaf disks; for mortality at 500 g/ha: application rate 500 g/ha; for mortality at 100 g/ha: application rate 100 g/ha, read-out: activity (mortality)
In short: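 Chinese cabbage leaf disks infested with all aphid instars were sprayed with compound diluted in water containing emulsifier (1000 ppm). Mortality (%) was scored after 5 days, 100% meaning all aphids killed.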

[6] = tested on: larvae of the southern green stink bug (Nezara viridula); test: Nezara viridula spray test; conditions: 96 h, after 4 days, barley plants; for mortality at 500 g/ha: application rate 500 g/ha, read-out: activity (mortality); for mortality at 100 g/ha: application rate 100 g/ha
In short: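 Barley plants sprayed with the active compound in emulsifier-containing water, then infested with stink bug larvae. Mortality scored in % after 4 days, with 100% meaning all insects killed.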

[7] = tested on: fall armyworm larvae (Spodoptera frugiperda); test: Spodoptera frugiperda spray test; conditions: 168 h, application rate 100 g/ha, after 7 days, maize leaf sections
In short: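 Caterpillars are placed on sprayed, dried maize leaf sections. Sprays contain compound diluted in water with emulsifier at 1000 ppm; mortality in % is determined 7 days later.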

[8] = tested on: adult mosquitoes Anopheles funestus strain FUMOZ-R; test: Anopheles funestus test (ANPHFU surface treatment & contact assay); conditions: surface concentration 20 mg/m^2, exposure 30 minutes, 24 hours after contact, read-out: efficacy (mortality)
Protocol: Anopheles funestus Test (ANPHFU Surface Treatment & Contact Assay)
Solvent: Aceton+2000 ppm rapeseed oil methyl ester (RME)
In order to produce a sufficient, active ingredient containing solution it is necessary to solve the test compound in the solvent-mix (acetone at 2 mg/ml/RME 2000 ppm). This solution is pipetted onto a glazed tile and after evaporation of the acetone, adult mosquitoes of the species Anopheles funestus strain FUMOZ-R (Hunt et al., Med. Vet. Entomol. 2005 September; 19(3): 271-275) are placed onto the dried surface. The exposure time is 30 minutes.
Mortality in percent (%) is determined 24 hours after contact of the insects to the treated surface. 100% mortality means that all tested insects are dead, whereas 0% means that no insect died.

[9] = tested on: adult flies Musca domestica strain WHO-N; test: Musca domestica test (MUSCDO surface treatment & contact assay); conditions: 24 hours after contact, read-out: efficacy (mortality); for mortality at 20 mg/m2: surface concentration 20 mg/m^2, exposure 30 minutes
In short: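 Compound dissolved at 2 mg/ml in acetone with 2000 ppm RME, applied to glazed tile and dried; adult flies exposed on the surface for 30 min. Percent mortality scored 24 h after contact.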

[10] = tested on: brown planthopper (Nilaparvata lugens); test: Nilaparvata lugens spray test; conditions: 96 h, after 4 days, rice plants; for mortality at 100 g/ha: application rate 100 g/ha; for mortality at 500 g/ha: application rate 500 g/ha
Protocol: Nilaparvata lugens—Spray Test
To produce a suitable preparation of active compound, 1 part by weight of active compound is mixed with the stated amount of solvents and is diluted with water, containing an emulsifier concentration of 1000 ppm, to the desired concentration. Further test concentrations are prepared by dilution with emulsifier containing water.
Rice plants (Oryza sativa) are sprayed with a preparation of the active ingredient of the desired concentration and the plants are infested with the brown planthopper (Nilaparvata lugens).
After 4 days mortality in % is determined. 100% means all planthoppers have been killed and 0% means none of the planthoppers have been killed.

[11] = tested on: Rhipicephalus (Boophilus) microplus larvae (strain Parkhurst, resistant against synthetic pyrethroids); test: Rhipicephalus (Boophilus) microplus in-vitro contact test, larval cattle tick; conditions: after 48 hours, read-out: activity (efficacy: larvae dead or moribund); for pest or weed control at 1 µg/cm2, 100 g/ha: application rate 1 μg/cm^2 (=100 g/ha); for pest or weed control at 5 µg/cm2, 500 g/ha: application rate 5 μg/cm^2 (=500 g/ha)
In short: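 Acetone solutions were coated onto glass tube walls, giving 5 μg/cm^2 at 900 ppm. Once dry, 20–50 pyrethroid-resistant Parkhurst larvae were added per tube and held 48 h at 27 °C and 85% RH. Efficacy was scored by negative geotaxis as the percentage of dead or moribund larvae.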

[12] = tested on: adult cat fleas (Ctenocephalides felis); test: Ctenocephalides felis in-vitro contact test, adult cat flea; conditions: application rate 5 μg/cm^2 (=500 g/ha), after 48 hours, read-out: activity (efficacy: fleas dead or moribund)
In short: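 Acetone solutions of compound were coated onto inner walls of glass tubes (900 ppm giving 5 μg/cm^2) and dried; 5-10 adult C. felis were then held 48 h at room temperature. Efficacy = % fleas dead or moribund, judged by inability to escape a 45-50° C heating plate within 5 min.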

[13] = tested on: adult brown dog ticks (Rhipicephalus sanguineus); test: Rhipicephalus sanguineus in-vitro contact test, adult brown dog ticks; conditions: application rate 5 μg/cm^2 (=500 g/ha), after 48 hours, read-out: activity (efficacy: ticks dead or moribund)
In short: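 Efficacy (%) reflects the fraction of adult ticks dead or moribund after 48 h of contact with a dried acetone film on tube walls at 5 μg/cm^2 (from 900 ppm). Moribund status was assessed by inability to climb away from heat at 45-50° C.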

[14] = tested on: adult mosquitoes Aedes aegypti strain MONHEIM; test: Aedes aegypti test (AEDSAE surface treatment & contact assay); conditions: 24 hours after contact, read-out: efficacy (mortality); for mortality at 20 mg/m2: surface concentration 20 mg/m^2, exposure 30 minutes
In short: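 Compound in acetone (2 mg/ml) with 2000 ppm RME dried onto glazed tile; adults exposed to the treated surface for 30 min. Percent mortality scored 24 h after contact.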

[15] = surface concentration 4 mg/m^2, exposure 30 minutes

Row | SMILES | pest or weed control at 32 µg/disc, 100 g/ha [3] [%] | mortality at 4 ppm [4] [%] | mortality at 500 g/ha [6] [%] | mortality at 100 g/ha [7] [%] | mortality at 20 mg/m2 [9] [%] | pest or weed control at 1 µg/cm2, 100 g/ha [11] [%] | pest or weed control at 5 µg/cm2, 500 g/ha [11] [%] | pest or weed control at 5 µg/cm2 [12] [%] | pest or weed control at 5 µg/cm2, 500 g/ha [13] [%] | mortality at 500 g/ha [10] [%] | mortality at 100 g/ha [5] [%] | also measured
1 | CC(NC(=O)c1cc(C(F)(F)F)cc(C(F)(F)F)c1)c1nc(C(F)F)nn1-c1ccc(C(=O)N2CCOCC2)cn1 (racemic) [Example I-83, N-[1-[5-(Difluoromethyl)-2-[5-(morpholine-4-carbonyl)-2-pyridyl]-1,2,4-triazol-3-yl]ethyl]-3,5-bis(trifluoromethyl)benzamide] | 100 | 100 | 100 | 100 | 80 to 100 | – | – | – | – | – | – | pest or weed control at 0.004 mg [1]: 100%; mortality at 100 ppm [2]: 100%; pest or weed control at 160 µg/disc, 500 g/ha ([3]; application rate 500 g/ha (=160 μg/well)): 100%; mortality at 20 ppm [4]: 100%; mortality at 500 g/ha [5]: 90%; mortality at 20 mg/m2 [8]: 80 to 100%
2 | C[C@H](NC(=O)c1cc(Cl)cc(C(F)(F)F)c1)c1ncnn1-c1ccc(N2CCCC2=O)cn1 [Example I-54] | – | 100 | – | – | – | – | – | – | – | – | – | mortality at 100 g/ha [10]: 100%
3 | C[C@H](NC(=O)c1cc(C(F)(F)F)cc(C(F)(F)F)c1)c1ncnn1-c1ccc(C(=O)N2CC(C)(C)OC(C)(C)C2)cn1 [Example I-77] | 100 | – | 100 | 100 | 80 to 100 | 100 | 100 | 100 | 80 | 100 | – | –
4 | Cc1nc([C@H](C)NC(=O)c2cc(C(F)(F)F)cc(C(F)(F)F)c2)n(-c2ccc(C(=O)N3CC(C)(C)OC(C)(C)C3)cn2)n1 [Example I-78] | – | – | 100 | 100 | – | 100 | 100 | – | 100 | 100 | – | –
5 | C[C@H](NC(=O)c1cc(C(F)(F)F)cc(C(F)(F)F)c1)c1ncnn1-c1ccc(C(=O)N2CC(=O)NC(=O)C2)cn1 [Example I-80] | – | – | 100 | – | – | – | – | – | – | 90 | – | –
6 | C[C@H](NC(=O)c1cc(C(F)(F)F)cc(S(C)(=O)=O)c1)c1ncnn1-c1ccc(C(=O)N2CCOCC2)cn1 [Example I-102] | 100 | 100 | – | 100 | – | – | – | 80 | – | – | 90 | mortality at 100 g/ha [6]: 100%; mortality at 100 g/ha [10]: 90%; mortality at 4 mg/m2 [14, 15]: 80 to 100%; mortality at 20 mg/m2 [14]: 80 to 100%
7 | C[C@H](NC(=O)c1cc(Cl)cc(S(C)(=O)=O)c1)c1ncnn1-c1ccc(C(=O)N2C[C@H](C)O[C@@H](C)C2)cn1 [Example I-122] | – | 100 | 100 | – | – | – | – | 80 | – | 90 | – | mortality at 500 g/ha [5]: 90%; mortality at 100 g/ha [6]: 90%
8 | CCc1nc([C@H](C)NC(=O)c2cc(C(F)(F)F)cc(C(F)(F)F)c2)n(-c2ccc(C(=O)N3C[C@@H](C)O[C@@H](C)C3)cn2)n1 [Example I-130] | 100 | – | 100 | 100 | 80 to 100 | 100 | 100 | 100 | 100 | 100 | 90 | mortality at 4 mg/m2 [9, 15]: 80 to 100%
9 | CCc1nc([C@H](C)NC(=O)c2cc(C(F)(F)F)cc(C(F)(F)F)c2)n(-c2ccc(C(=O)N3CCOCC3)cn2)n1 [Example I-131] | 100 | – | 100 | 100 | 80 to 100 | 100 | 100 | 100 | 100 | 100 | 90 | mortality at 20 mg/m2 [14]: 80 to 100%
10 | CCc1nc([C@H](C)NC(=O)c2cc(Br)cc(OC(F)(F)F)c2)n(-c2ccc(C(=O)N3CCOCC3)cn2)n1 [Example I-134] | 100 | – | 100 | 100 | – | – | – | – | – | 100 | 90 | –
11 | Cc1nc([C@H](C)NC(=O)c2cc(C(F)(F)F)cc(C(F)(F)F)c2)n(-c2cnc(C(=O)N3C[C@@H](C)O[C@@H](C)C3)cn2)n1 [Example I-138] | 100 | – | 100 | 100 | 80 to 100 | 100 | 100 | 100 | 100 | 100 | 90 | –
12 | C[C@H](NC(=O)c1cc(C(F)(F)F)cc(C(F)(F)F)c1)c1ncnn1-c1ncc(C(=O)N2CCCC2)cn1 [Example I-147] | 100 | – | – | 100 | – | – | – | – | – | 90 | 100 | –
